Values quoted from earlier work, collected in patent USRE41148E1, “Oral pulsed dose drug delivery system” (Shire Laboratories, Inc., priority 1998, dated 2010).

Columns and labels:
[1] = wax-surfactant coating level 60%
[2] = pulsatile capsule, release after nominal 5-hr period, majority of subjects

Row | SMILES | lag time of drug release [1] | time required for complete release after the lag time [1] | drug observed in the blood [2]
1 | Cn1c(=O)c2[nH]cnc2n(C)c1=O [theophylline] | two-hour | three hours | –
2 | C[C@H](CS)C(=O)N1CCC[C@H]1C(=O)O [captopril] | – | – | no measurable amounts
